Read-outs that look alike come from different tables or passages of the source.
Experiments:
human IBAT = target: T1, human IBAT (Homo sapiens, UniProt Q12908); experiment: IBAT counter screen, [3H]taurocholic acid uptake in IBAT-transfected HEK293 cells; assay type: cell-based; conditions: for EC50: read-out: pEC50 human IBAT (converted)
T1 construct: expressed in transfected cells; host or cells: HEK293
T1 sequence (Q12908 1-348): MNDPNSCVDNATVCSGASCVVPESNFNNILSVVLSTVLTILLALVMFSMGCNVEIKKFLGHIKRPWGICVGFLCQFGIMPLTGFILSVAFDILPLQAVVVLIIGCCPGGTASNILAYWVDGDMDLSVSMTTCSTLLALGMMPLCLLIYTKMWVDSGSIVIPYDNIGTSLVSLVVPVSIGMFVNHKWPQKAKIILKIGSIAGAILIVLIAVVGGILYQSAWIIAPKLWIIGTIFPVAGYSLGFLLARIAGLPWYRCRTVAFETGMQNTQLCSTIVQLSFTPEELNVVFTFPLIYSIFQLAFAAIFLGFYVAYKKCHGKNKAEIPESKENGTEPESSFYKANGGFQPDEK
Description: Following a 40-min incubation, the solution was removed, and the cells were washed twice with uptake buffer. Cells were lysed by addition of 20 μL 0.1% Tween 80 followed by 100 μL scintillation fluid and counted using a TopCount (Perkin Elmer).

[1] = Compound concentration in gall bladder, LC-MS/MS, 8 h post dose; assay type: in vivo; conditions: 30 mg/kg; for concentration at 8 h: male, C57BL/6, mouse, with contents, mice, gallbladder homogenate, read-out: Mean Example Gallbladder Concentration; for Number of Mice with Gallbladder Concentration < LLOQ: mice below LLOQ / mice in group
Description: (§1) Eight hours later, each mouse was heavily anesthetized with isoflurane, the peritoneal cavity was opened and the gallbladder, with its entire contents, was carefully excised and weighed. Blood was collected from the left ventricle of the heart and processed to plasma in EDTA-coated tubes containing aprotinin and DPPIV inhibitor for measurement of total GLP-1 (K150FCC; Meso Scales Discovery, Gaithersburg Md.).
Compound concentrations in the gall bladder were determined as follows: each mouse was heavily anesthetized with isoflurane, the peritoneal cavity was opened and the gallbladder, with its entire contents, was carefully excised. After harvest, gall bladders were homogenized in 100 μL water using a micro-homogenizer. Samples of homogenate were diluted 1:5 in water and precipitated with three volumes of neat acetonitrile. After centrifugation, supernatants were analyzed by LC-MS/MS. The level of test compound present in gall bladder samples was interpolated from a standard curve for each individual compound prepared in a matrix of gallbladder homogenate from vehicle treated animals.

[2] = Compound plasma concentration, LC-MS/MS, 8 h post dose; assay type: in vivo; conditions: 30 mg/kg; for Number of Mice with Plasma Concentration < LLOQ: mice below LLOQ / mice in group; for concentration at 8 h: male, C57BL/6, mouse, mice, plasma, read-out: Mean Example Plasma Concentration
Description: as §1
Plasma samples were treated with acetonitrile containing an internal standard, precipitated proteins removed by centrifugation. Supernatants were analyzed by LC-MS/MS and compound concentrations were determined by interpolated from a standard curve prepared in plasma.

human TGR5 = target: T2, human TGR5 (Homo sapiens, UniProt Q8TDU6); experiment: Cell-based TGR5 assay, HEK293 cells stably expressing human TGR5, cAMP by HTRF; conditions: 0.05 nM to 10 μM
T2 construct: expressed in transfected cells
T2 sequence (Q8TDU6 1-330): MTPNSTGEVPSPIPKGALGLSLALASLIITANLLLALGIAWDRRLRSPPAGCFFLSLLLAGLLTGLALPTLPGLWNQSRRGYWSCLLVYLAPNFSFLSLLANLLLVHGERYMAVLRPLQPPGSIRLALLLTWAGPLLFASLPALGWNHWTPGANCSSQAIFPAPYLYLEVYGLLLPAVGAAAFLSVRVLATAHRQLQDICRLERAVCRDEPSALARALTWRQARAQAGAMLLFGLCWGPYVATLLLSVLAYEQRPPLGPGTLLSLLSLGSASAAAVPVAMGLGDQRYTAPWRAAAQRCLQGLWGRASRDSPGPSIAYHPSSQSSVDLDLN
How it was run: (§2)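 cAMP HTRF read-out, converted to concentration via standard curve, after a 30 min, 37 °C compound exposure in HBSS with 10 mM HEPES pH 7.4 and 0.5 mM IBMX, compounds serially diluted 3-fold from 10 mM DMSO stock then 100-fold. Cells: stable human TGR5 HEK293, or NCI-H716 expressing TGR5 endogenously.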

[3] = target: T3, endogenously expressed TGR5 in NCI H716 (Homo sapiens, UniProt Q8TDU6); experiment: Cell-based TGR5 assay, NCI-H716 cells endogenously expressing human TGR5, cAMP by HTRF; conditions: 30 min at 37 C, 22 nM to 50 μM, read-out: pEC50 endogenously expressed TGR5 in NCI H716 (converted)
T3 construct: human caecum carcinoma cell line NCI-H716 which endogenously expresses human TGR5; endogenous in cells; host or cells: NCI-H716
T3 sequence (Q8TDU6 1-330): T2 sequence (Q8TDU6 1-330)
How it was run: as §2

[4] = pEC50 Human TGR5, HEK293 cells stably expressing human TGR5, 30 min at 37 C

Row | EC50 (human IBAT) [µM] | concentration at 8 h [1] [nM] | Number of Mice with Gallbladder Concentration < LLOQ [1] | Number of Mice with Plasma Concentration < LLOQ [2] | concentration at 8 h [2] [ng/mL] | also measured | SMILES
1 | > 25.1 |  |  |  |  |  | O=C([C@@H]1C[C@@H](O)CN1Cc1cc(Cl)ccc1Cl)N1CCN(C2CC2)c2ccccc21 [Example 2, (4-cyclopropyl-3,4-dihydroquinoxalin-1(2H)-yl)((2S,4R)-1-(2,5-dichlorobenzyl)-4-hydroxypyrrolidin-2-yl)methanone]
2 |  | 100 |  |  |  |  | O=C(NCCCCc1cc(Cl)c(CN2CSC[C@H]2C(=O)N2CCN(C3CC3)c3ccccc32)cc1Cl)NC[C@@H](O)[C@H](O)[C@@H](O)[C@@H](O)CO [Example 177, 1-(4-(2,5-dichloro-4-(((R)-4-(4-cyclopropyl-1,2,3,4-tetrahydroquinoxaline-1-carbonyl)thiazolidin-3-yl)methyl)phenyl)butyl)-3-((2R,3S,4S,5S)-2,3,4,5,6-pentahydroxyhexyl)urea]
3 |  | 520 | 0/8 | 7/8 |  |  | O=C(CCc1cc(Cl)c(CN2CSC[C@H]2C(=O)N2CCN(C3CC3)c3ccccc32)cc1Cl)NC[C@H](O)[C@@H](O)C(O)[C@H](O)CO (stereo in doubt) [Example 97, 3-(2,5-dichloro-4-(((R)-4-(4-cyclopropyl-1,2,3,4-tetrahydroquinoxaline-1-carbonyl)thiazolidin-3-yl)methyl)phenyl)-N-((2S,3R,4R,5R)-2,3,4,5,6-pentahydroxyhexyl)propanamide]
4 |  |  | 0/8 | 2/8 |  |  | O=C(NC[C@H](O)[C@@H](O)[C@H](O)[C@H](O)CO)c1ccc(OCc2cc(Cl)c(CN3CSC[C@H]3C(=O)N3CCN(C4CC4)c4ccccc43)cc2Cl)nc1 [Example 285]
5 | > 25.1 |  |  |  |  |  | O=C([C@H]1CCCCN1Cc1cc(Cl)ccc1Cl)N1CCN(C2CC2)c2ccccc21 [Example 16, (R)-(4-cyclopropyl-3,4-dihydroquinoxaline-1(2H)-yl)(1-(2,5-dichlorobenzyl)piperidin-2-yl) methanone]
6 | > 25.1 |  |  |  |  |  | O=C([C@@H]1CSCCN1Cc1cc(Cl)ccc1Cl)N1CCN(C2CC2)c2ccccc21 [Example 22, (R)-(4-cyclopropyl-3,4-dihydroquinoxaline-1(2H)-yl)(4-(2,5-dichlorobenzyl)thiomorpholin-3-yl)methanone]
7 |  | 3060 | 0/8 | 7/8 | 24.8 | EC50 (human TGR5; [4]): 0.126 to 1 µM | O=C(NCCCCCc1cc(Cl)c(CN2CSC[C@H]2C(=O)N2CCN(C3CC3)c3ccccc32)cc1Cl)NCP(=O)(O)O [Example 283]
8 |  |  | 0/8 | 4/8 |  |  | CN(C[C@H](O)[C@@H](O)[C@@H](O)[C@H](O)CO)C(=O)CCc1cc(Cl)c(CN2CSC[C@H]2C(=O)N2CCN(C3CC3)c3ccccc32)cc1Cl [Example 98, 3-(2,5-dichloro-4-(((R)-4-(4-cyclopropyl-1,2,3,4-tetrahydroquinoxaline-1-carbonyl)thiazolidin-3-yl)methyl)phenyl)-N-methyl-N-((2S,3R,4S,5R)-2,3,4,5,6-pentahydroxyhexyl)propanamide]
9 | > 25.1 |  |  |  |  |  | O=C([C@@H]1CCCN1Cc1cc(Cl)ccc1Cl)N1CCCc2ccccc21 [Example 10, (S)-(1-(2,5-dichlorobenzyl)pyrrolidin-2-yl)(3,4-dihydroquinolin-1(2H)-yl)methanone]
10 | > 25.1 |  |  |  |  |  | O=C([C@@H]1COCCN1Cc1cc(Cl)ccc1Cl)N1CCN(C2CC2)c2ccccc21 [Example 23, (S)-(4-cyclopropyl-3,4-dihydroquinoxaline-1(2H)-yl)(4-(2,5-dichlorobenzyl)morpholin-3-yl)methanone]
11 |  | 80 | 0/7 | 0/8 | 2.8 | EC50 (human TGR5; [4]): < 0.1 µM | O=C(NCCCCCc1cc(Cl)c(CN2CSC[C@H]2C(=O)N2CCN(C3CC3)c3ccccc32)cc1Cl)N1CCN(CP(=O)(O)O)CC1 [Example 282]
12 |  | < 3 | 8/8 | 6/8 | 2 |  | CN(C[C@H](O)[C@@H](O)[C@@H](O)[C@H](O)CO)C(=O)CCCCc1cc(Cl)c(CN2CSC[C@H]2C(=O)N2CCN(C3CC3)c3ccccc32)cc1Cl [Example 239]
13 |  | 1730 | 0/7 | 7/8 | 0.6 | EC50 (human TGR5; [4]): < 0.1 µM | C[C@@H](NC(=O)[C@@H](C)NC(=O)[C@@H](C)NC(=O)CCCCc1cc(Cl)c(CN2CSC[C@H]2C(=O)N2CCN(C3CC3)c3ccccc32)cc1Cl)C(=O)O [Example 227]
14 |  |  | 0/7 | 7/7 | < 0.5 |  | CN(C[C@@H](O)[C@H](O)[C@@H](O)[C@@H](O)CO)C(=O)NCCCCc1cc(Cl)c(CN2CSC[C@H]2C(=O)N2CCN(C3CC3)c3ccccc32)cc1Cl [Example 208]
15 |  | 3100 | 0/8 | 5/8 | 2.3 | EC50 (human TGR5; [4]): 0.126 to 1 µM | CN(C[C@H](O)[C@@H](O)[C@H](O)[C@H](O)CO)C(=O)CC[C@H](NC(=O)CCCCc1cc(Cl)c(CN2CSC[C@H]2C(=O)N2CCN(C3CC3)c3ccccc32)cc1Cl)C(=O)O [Example 278]
16 | > 25.1 |  |  |  |  |  | O=C([C@@H]1CCCN1Cc1cc(Cl)ccc1Cl)N1CCN(C2CC2)c2ccccc21 [Example 12, (S)-(4-cyclopropyl-3,4-dihydroquinoxalin-1(2H)-yl)(1-(2,5-dichlorobenzyl)pyrrolidin-2-yl)methanone]
17 | > 25.1 |  |  |  |  |  | O=C([C@@H]1CCCCN1Cc1cc(Cl)ccc1Cl)N1CCN(C2CC2)c2ccccc21 [Example 14, (S)-(4-cyclopropyl-3,4-dihydroquinoxaline-1(2H)-yl)(1-(2,5-dichlorobenzyl)piperidin-2-yl) methanone]
18 | > 25.1 |  |  |  |  |  | O=C([C@H]1CCCN1Cc1cc(Cl)ccc1Cl)N1CCN(C2CC2)c2ccccc21 [Example 15, (R)-(4-cyclopropyl-3,4-dihydroquinoxalin-1(2H)-yl)(1-(2,5-dichlorobenzyl)pyrrolidin-2-yl)methanone]
19 |  |  |  |  |  | inhibition of uptake of [3H]taurocholic acid (human IBAT; IBAT-transfected HEK293 cells, potency similar to that reported by Craddock): inhibited uptake | C[C@H](CCC(=O)O)[C@H]1CC[C@H]2[C@@H]3[C@H](O)C[C@@H]4C[C@H](O)CC[C@]4(C)[C@H]3CC[C@]12C [chenodeoxycholic acid, reference compound]
20 |  |  | 1/8 | 7/8 |  |  | CN(C[C@H](O)[C@@H](O)[C@H](O)[C@H](O)CO)C(=O)CCc1cc(Cl)c(CN2CSC[C@H]2C(=O)N2CCN(C3CC3)c3ccccc32)cc1Cl [Example 237]
21 |  |  |  |  | 7.6 |  | O=C(O)CN(CCCCCc1cc(Cl)c(CN2CSC[C@H]2C(=O)N2CCN(C3CC3)c3ccccc32)cc1Cl)CC(=O)O [Example 276]
22 |  |  |  |  |  | EC50 (human TGR5; HEK293 cells stably expressing human TGR5, 30 min at 37 C, read-out: pEC50 Human TGR5 (converted)): < 0.1 µM; EC50 [3]: 0.126 to 1 µM | O=C([C@@H]1SCCN1Cc1cc(Cl)ccc1C(F)(F)F)N1CCN(C2CC2)c2ccccc21 [Example 268]

Source: patent publication US20150148311A1, “NON-SYSTEMIC TGR5 AGONISTS” (Ardelyx, Inc., priority 2011, published 2015)
